From ChEMBL document CHEMBL4715837, “Dimeric aryl-substituted imidazoles may inhibit ALT cancer by targeting the multimeric G-quadruplex in telomere” (Eur J Med Chem, 2020)
Each block holds one compound with its values, some of them ahead of it. The source made the active and inactive calls. The rule behind the calls is not given here.

Tests used:
Quadruplex DNA [1] = experiment: Binding affinity at Tel21 G4 quadruplex DNA (unknown origin) assessed as change in melting temperature at 6 uM by circular dichroism spectrophotometric method; assay type: nucleic acid
Quadruplex DNA [2] = experiment: Binding affinity at Tel45 G4 quadruplex DNA (unknown origin) assessed as change in melting temperature at 6 uM by circular dichroism spectrophotometric method; assay type: nucleic-acid assay
U2OS [3] = experiment: Cytotoxicity against human U2OS cells assessed as reduction in cell viability measured after 24 hrs by CCK8 assay
U2OS [4] = experiment: Cell cycle arrest in human U2OS cells assessed as accumulation at G0/G1 phase at 2.5 uM measured after 24 hrs by propidium iodide staining based flow cytometry (reference value: 42%); assay type: functional
Quadruplex DNA [5] = experiment: Binding affinity at Tel21 G4 quadruplex DNA (unknown origin) by fluorescence spectroscopic analysis; assay type: nucleic-acid assay
U2OS [6] = experiment: Induction of apoptosis in human U2OS cells assessed as viable cells at 0.6 uM measured after 24 hrs by Annexin-V flour 633/propidium iodide staining based flow cytometry (reference value: 90%); assay type: functional; conditions: read-out: Activity
U2OS [7] = experiment: Induction of apoptosis in human U2OS cells assessed as late apoptotic cells at 2.5 uM measured after 24 hrs by Annexin-V flour 633/propidium iodide staining based flow cytometry (reference value: 0.03%); assay type: functional
[8] = Binding affinity to hairpin duplex DNA (unknown origin) by fluorescence spectroscopic analysis
U2OS [9] = experiment: Induction of apoptosis in human U2OS cells assessed as viable cells at 1.2 uM measured after 24 hrs by Annexin-V flour 633/propidium iodide staining based flow cytometry (reference value: 90%); assay type: functional; conditions: read-out: Activity
[10] = Binding affinity to hairpin duplex DNA (unknown origin) by time resolved fluorescence analysis
U2OS [11] = experiment: Cell cycle arrest in human U2OS cells assessed as accumulation at G2/M phase at 2.5 uM measured after 24 hrs by propidium iodide staining based flow cytometry (reference value: 33.5%); assay type: functional
U2OS [12] = experiment: Induction of apoptosis in human U2OS cells assessed as early apoptotic cells at 1.2 uM measured after 24 hrs by Annexin-V flour 633/propidium iodide staining based flow cytometry (reference value: 9.55%); assay type: functional
Quadruplex DNA [13] = experiment: Binding affinity at Tel45-9 mutant G4 quadruplex DNA (unknown origin) assessed as change in melting temperature at 6 uM by circular dichroism spectrophotometric method; assay type: nucleic-acid assay
Quadruplex DNA [14] = experiment: Binding affinity at Tel45 G4 quadruplex DNA (unknown origin) assessed as appearance of new long-lived unquenched species by time resolved fluorescence assay; assay type: nucleic-acid assay
U2OS [15] = experiment: Antimigratory activity in human U2OS cells measured after 24 hrs by wound scrape assay; assay type: functional, cell-based; conditions: dose 1.5-5 µM
Quadruplex DNA [16] = experiment: Binding affinity at Tel45 G4 quadruplex DNA (unknown origin) by fluorescence spectroscopic analysis; assay type: nucleic-acid assay
U2OS [17] = experiment: Inhibition of colony formation in human U2OS cells supplemented with fresh medium containing compounds every 3 days for 7 days by crystal violet staining based assay; assay type: functional, cell-based; conditions: dose 0.12-0.5 µM, time 7.0 day
U2OS [18] = experiment: Cell cycle arrest in human U2OS cells assessed as accumulation at G0/G1 phase at 0.6 uM measured after 24 hrs by propidium iodide staining based flow cytometry (reference value: 42%); assay type: functional
U2OS [19] = experiment: Induction of apoptosis in human U2OS cells assessed as necrotic cells at 1.2 uM measured after 24 hrs by Annexin-V flour 633/propidium iodide staining based flow cytometry (reference value: 0.022%); assay type: functional
U2OS [20] = experiment: Induction of apoptosis in human U2OS cells assessed as early apoptotic cells at 2.5 uM measured after 24 hrs by Annexin-V flour 633/propidium iodide staining based flow cytometry (reference value: 9.55%); assay type: functional
Quadruplex DNA [21] = experiment: Binding affinity to 2-Ap1 labelled Tel45 G4 quadruplex DNA (unknown origin) up to 10 uM by fluorescence titration assay; assay type: nucleic-acid assay; conditions: dose microM <=10
U2OS [22] = experiment: Induction of apoptosis in human U2OS cells assessed as early apoptotic cells at 0.6 uM measured after 24 hrs by Annexin-V flour 633/propidium iodide staining based flow cytometry (reference value: 9.55%); assay type: functional
U2OS [23] = experiment: Induction of apoptosis in human U2OS cells assessed as necrotic cells at 0.6 uM measured after 24 hrs by Annexin-V flour 633/propidium iodide staining based flow cytometry (reference value: 0.022%); assay type: functional
U2OS [24] = experiment: Cell cycle arrest in human U2OS cells assessed as accumulation at G2/M phase at 0.6 uM measured after 24 hrs by propidium iodide staining based flow cytometry (reference value: 33.5%); assay type: functional
U2OS [25] = experiment: Induction of apoptosis in human U2OS cells assessed as viable cells at 2.5 uM measured after 24 hrs by Annexin-V flour 633/propidium iodide staining based flow cytometry (reference value: 90%); assay type: functional; conditions: read-out: Activity
U2OS [26] = experiment: Cell cycle arrest in human U2OS cells assessed as accumulation at Sub-G1 phase at 1.2 uM measured after 24 hrs by propidium iodide staining based flow cytometry (reference value: 0.5%); assay type: functional
U2OS [27] = experiment: Cell cycle arrest in human U2OS cells assessed as accumulation at Sub-G1 phase at 2.5 uM measured after 24 hrs by propidium iodide staining based flow cytometry (reference value: 0.5%); assay type: functional
Quadruplex DNA [28] = experiment: Binding affinity to Tel45 G4 quadruplex DNA (unknown origin) assessed as compound-DNA complex formation at stoichiometry ratio of 1:1 by job-plot analysis; assay type: nucleic-acid assay
Quadruplex DNA [29] = experiment: Binding affinity at Tel45-6 mutant G4 quadruplex DNA (unknown origin) assessed as change in melting temperature at 6 uM by circular dichroism spectrophotometric method; assay type: nucleic-acid assay
U2OS [30] = experiment: Cell cycle arrest in human U2OS cells assessed as accumulation at S phase at 2.5 uM measured after 24 hrs by propidium iodide staining based flow cytometry (reference value: 24%); assay type: functional
Quadruplex DNA [31] = experiment: Binding affinity to 2-Ap25 labelled Tel45 G4 quadruplex DNA (unknown origin) up to 10 uM by fluorescence titration assay; assay type: nucleic-acid assay; conditions: dose microM <=10
U2OS [32] = experiment: Cell cycle arrest in human U2OS cells assessed as accumulation at S phase at 1.2 uM measured after 24 hrs by propidium iodide staining based flow cytometry (reference value: 24%); assay type: functional
U2OS [33] = experiment: Cell cycle arrest in human U2OS cells assessed as accumulation at G0/G1 phase at 1.2 uM measured after 24 hrs by propidium iodide staining based flow cytometry (reference value: 42%); assay type: functional
BJ = experiment: Cytotoxicity against human BJ cells assessed as reduction in cell viability measured after 24 hrs by CCK8 assay; assay type: cell-based
U2OS [34] = experiment: Cell cycle arrest in human U2OS cells assessed as accumulation at Sub-G1 phase at 0.6 uM measured after 24 hrs by propidium iodide staining based flow cytometry (reference value: 0.5%); assay type: functional
U2OS [35] = experiment: Induction of apoptosis in human U2OS cells assessed as necrotic cells at 2.5 uM measured after 24 hrs by Annexin-V flour 633/propidium iodide staining based flow cytometry (reference value: 0.022%); assay type: functional
U2OS [36] = experiment: Induction of apoptosis in human U2OS cells assessed as late apoptotic cells at 1.2 uM measured after 24 hrs by Annexin-V flour 633/propidium iodide staining based flow cytometry (reference value: 0.03%); assay type: functional
U2OS [37] = experiment: Cell cycle arrest in human U2OS cells assessed as increase in accumulation at S phase measured after 24 hrs by propidium iodide staining based flow cytometry; assay type: functional
Quadruplex DNA [38] = experiment: Binding affinity at Tel21 G4 quadruplex DNA (unknown origin) by time resolved fluorescence analysis; assay type: nucleic-acid assay
U2OS [39] = experiment: Cell cycle arrest in human U2OS cells assessed as accumulation at G2/M phase at 1.2 uM measured after 24 hrs by propidium iodide staining based flow cytometry (reference value: 33.5%); assay type: functional
U2OS [40] = experiment: Induction of apoptosis in human U2OS cells assessed as late apoptotic cells at 0.6 uM measured after 24 hrs by Annexin-V flour 633/propidium iodide staining based flow cytometry (reference value: 0.03%); assay type: functional
Quadruplex DNA [41] = experiment: Binding affinity at Tel45-9 mutant G4 quadruplex DNA (unknown origin) by fluorescence spectroscopic analysis; assay type: nucleic-acid assay
U2OS [42] = experiment: Cell cycle arrest in human U2OS cells assessed as accumulation at S phase at 0.6 uM measured after 24 hrs by propidium iodide staining based flow cytometry (reference value: 24%); assay type: functional
Quadruplex DNA [43] = experiment: Binding affinity at Tel45-6 mutant G4 quadruplex DNA (unknown origin) by fluorescence spectroscopic analysis; assay type: nucleic-acid assay
Quadruplex DNA [44] = experiment: Binding affinity to 2-Ap46 labelled Tel45 G4 quadruplex DNA (unknown origin) up to 10 uM by fluorescence titration assay; assay type: nucleic-acid assay; conditions: dose microM <=10

deltaTm (Quadruplex DNA [1]): 8.9 °C | ΔTm (Quadruplex DNA [2]): 6.9 °C
SMILES: CN1CCN(c2ccc(-c3nc(-c4ccc(-c5nc(-c6ccc(N7CCN(C)CC7)cc6)c(-c6ccc(N7CCN(C)CC7)cc6)[nH]5)cc4)[nH]c3-c3ccc(N4CCN(C)CC4)cc3)cc2)CC1

deltaTm (Quadruplex DNA [1]): 6.5 °C | ΔTm (Quadruplex DNA [2]): 15.7 °C
SMILES: CN1CCN(c2ccc(-c3nc(-c4ccc(-c5nc(-c6ccc(F)cc6)c(-c6ccc(N7CCN(C)CC7)cc6)[nH]5)cc4)[nH]c3-c3ccc(N4CCN(C)CC4)cc3)cc2)CC1

deltaTm (Quadruplex DNA [1]): 6.1 °C | ΔTm (Quadruplex DNA [2]): 10.9 °C
SMILES: CN1CCN(c2ccc(-c3nc(-c4ccc(-c5nc(-c6ccc(F)cc6)c(-c6ccc(F)cc6)[nH]5)cc4)[nH]c3-c3ccc(N4CCN(C)CC4)cc3)cc2)CC1

SMILES: CN(C)c1ccc(Nc2c3ccc(NC(=O)CCN4CCCC4)cc3nc3cc(NC(=O)CCN4CCCC4)ccc23)cc1
IC50 (U2OS [3]): > 40 µM

Kd (Quadruplex DNA [5]): 18.4 µM | Kd [8]: 51.7 µM | Activity [10]: Not Active | deltaTm (Quadruplex DNA [13]): 4.3 °C | Activity (Quadruplex DNA [14]): Active | Kd (Quadruplex DNA [16]): 4.6 µM | Activity (Quadruplex DNA [21]): inactive | Activity (Quadruplex DNA [28]): Active | deltaTm (Quadruplex DNA [29]): 2.5 °C | Activity (Quadruplex DNA [31]): Active | deltaTm (Quadruplex DNA [1]): 1.7 °C | ΔTm (Quadruplex DNA [2]): 12.7 °C | Activity (Quadruplex DNA [38]): Not Active | Kd (Quadruplex DNA [41]): 10.7 µM | Kd (Quadruplex DNA [43]): 8.6 µM | Activity (Quadruplex DNA [44]): inactive
SMILES: CN1CCN(c2ccc(-c3nc(-c4ccc(-c5nc(-c6ccc(F)cc6)c(-c6ccc(N7CCN(C)CC7)cc6)[nH]5)cc4)[nH]c3-c3ccc(F)cc3)cc2)CC1
Activity (U2OS [4]): 36.5% | viability at 0.6 µM (U2OS [6]): 84.3% | Activity (U2OS [7]): 4.92% | viability at 1.2 µM (U2OS [9]): 76.8% | Activity (U2OS [11]): 27.9% | Activity (U2OS [12]): 17.9% | Activity (U2OS [15]): Dose-dependent effect | inhibition (U2OS [17]): Dose-dependent effect | Activity (U2OS [18]): 41.4% | Activity (U2OS [19]): 0.53% | Activity (U2OS [20]): 20% | Activity (U2OS [22]): 12.5% | Activity (U2OS [23]): 0.14% | Activity (U2OS [24]): 33.4% | viability at 2.5 µM (U2OS [25]): 73.7% | Activity (U2OS [26]): 0.4% | Activity (U2OS [27]): 3.4% | Activity (U2OS [30]): 32.2% | IC50 (U2OS [3]): 2.1 µM | Activity (U2OS [32]): 25.9% | Activity (U2OS [33]): 39.3% | IC50 (BJ): 29.3 µM | Activity (U2OS [34]): 0.3% | Activity (U2OS [35]): 1.34% | Activity (U2OS [36]): 4.78% | Activity (U2OS [37]): Dose-dependent effect | Activity (U2OS [39]): 34.4% | Activity (U2OS [40]): 3.05% | Activity (U2OS [42]): 25%
